Results: patent publication US5166201A, “2β,19-ethylene bridged steroids as aromatase inhibitors” (Merrell Dow Pharmaceuticals Inc., priority 1990, dated 1992)

Target: T1, aromatase (Homo sapiens, UniProt P11511)
T1 construct: microsomal protein per ml of assay buffer; from tissue; host or cells: microsomes
T1 sequence (P11511 1-503): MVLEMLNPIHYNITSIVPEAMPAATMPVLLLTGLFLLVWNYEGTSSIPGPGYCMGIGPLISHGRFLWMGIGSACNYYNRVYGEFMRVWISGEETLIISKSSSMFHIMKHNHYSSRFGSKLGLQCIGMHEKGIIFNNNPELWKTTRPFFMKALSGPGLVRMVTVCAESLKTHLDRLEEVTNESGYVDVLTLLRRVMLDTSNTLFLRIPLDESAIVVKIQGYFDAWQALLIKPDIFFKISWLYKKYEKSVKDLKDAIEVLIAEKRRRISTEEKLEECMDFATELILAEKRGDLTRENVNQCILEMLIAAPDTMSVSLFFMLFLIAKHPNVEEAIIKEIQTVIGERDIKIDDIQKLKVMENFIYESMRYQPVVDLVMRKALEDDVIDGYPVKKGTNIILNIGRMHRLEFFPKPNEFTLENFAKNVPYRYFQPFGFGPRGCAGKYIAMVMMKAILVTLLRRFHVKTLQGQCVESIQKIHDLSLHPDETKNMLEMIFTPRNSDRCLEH
Experiment: time-dependent aromatase inhibition assay (preincubation, Kitz-Wilson analysis)
Assay type: biochemical
Method: In this assay, the inhibitor is preincubated with enzyme prior to assaying for activity in the presence of high substrate levels. A time-related decrease in enzyme activity can be indicative of irreversible binding […] a preferred method of inhibition.
In the time-dependent assay, an amount of the enzyme inhibitor in 100 μl of the assay buffer described above which will provide assay concentrations which are usually between 1 nM and 10 μm are added to 35-ml centrifuge tubes containing 600 μl of the NADPH generating system. The preincubation is started by the addition of 700 μl of aromatase preparation, usually 300-800 μg of microsomal protein per ml of assay buffer. These preparations are mixed using a vortex mixer and incubated for 0, 5, 10 or 20 minutes at 25° C. Then 100 μl of androstenedione (-6.8 μM) containing 1β-^3 H androstenedione is added in assay buffer to provide an assay concentration of substrate (0.55 μM) which is at least ten times the Km of androstenedione (0.04 μM). Following vortexing, the enzyme incubation is continued for 10 minutes before being terminated by the addition of chloroform. The amount of radioactivity in the aqueous fraction is determined by scintillation procedures. The enzymatic activity for each concentration of inhibitor at each time period of preincubation is calculated as a percent of the "0" minute vehicle control arbitrarily set at 100%. Therefore, the present enzyme inhibition is expressed as a percentage: (100 percent minus percent enzyme activity with inhibitor present).
Enzyme kinetic analysis utilized Kitz-Wilson plots for time-dependent assays. These analyses provide estimates of apparent Ki of inactivation which represents the inhibitor concentration required to produce half-maximal rate of enzyme inactivation. The pseudo first-order rate constant for enzyme inactivation (kcat) and the half-time of inactivation (.tau.50) of infinite inhibitor concentrations were determined. […]

C[C@]12CC[C@H]3[C@@H](CCC4=CC(=O)[C@H]5CCC[C@]43C5)[C@@H]1CCC2=O [2β,19-(ethylene)androst-4-ene-3,17-dione]
kinact/KI (Kitz-Wilson analysis, read-out: kcat /Ki (inactivation) ratio, index of efficiency of enzyme inactivation): 558000 M⁻¹ s⁻¹
half-time of inactivation (.tau.50) at infinite inhibitor concentration (Kitz-Wilson plot, microsomal aromatase preparation, 25° C.): 0.87 min
KI (inactivation) (Kitz-Wilson plot, microsomal aromatase preparation, preincubation 0-20 min at 25° C., androstenedione 0.55 μM, read-out: apparent Ki of inactivation): 23.9 nM
